Target: Recombinant human LSD1 (Homo sapiens, UniProt O60341)
Experiment: LSD1 inhibition assay (HTRF LSD1 Histone H3K4 mono-demethylation assay, me1->me0)
Format: biochemical
Details: 20 nM recombinant human LSD1, 95 nM H3K4(me1) biotinylated peptide, 15 min preincubation, 60 min at 25° C., read-out: LSD1 inhibition IC50 (nM range)
Method in brief: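 HTRF demethylation (me1->me0) read-out: streptavidin-XL665 and anti-H3K4me0 cryptate added after reaction, ratio measured after 90 min dark. Reaction: 95 nM H3K4me1 biotin-peptide, 20 nM LSD1 (15-min compound pre-incubation), 60 min, 25 °C, buffer pH 8.5 plus FAD and DTT; 4-parameter logistic IC50.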

`COC1(C)CCN(c2ccc(CC3CNCCO3)cc2-c2ccc(C#N)c(F)c2)CC1` (stereo not drawn) [Example 61, 3-fluoro-2′-(4-methoxy-4-methylpiperidin-1-yl)-5′-[(morpholin-2-yl)methyl]-[1,1′-biphenyl]-4-carbonitrile] showed an IC50 of 100 to 1000 nM.
Compound `N#Cc1ccc(-c2cc(CC3CNCCO3)ccc2N2CC3(CCOCC3)C2)cc1F` (stereo not drawn) [Example 62, 3-fluoro-5′-[(morpholin-2-yl)methyl]-2′-{7-oxa-2-azaspiro[3.5]nonan-2-yl}-[1,1′-biphenyl]-4-carbonitrile] has an IC50 of 100 to 1000 nM.
Compound `CCOCC1(O)CCN(c2ccc(CC3CNCCO3)cc2-c2ccc(C#N)c(F)c2)CC1` (stereo not drawn) [Example 63, 2′-[4-(ethoxymethyl)-4-hydroxypiperidin-1-yl]-3-fluoro-5′-[(morpholin-2-yl)methyl]-[1,1′-biphenyl]-4-carbonitrile] has an IC50 of 100 to 1000 nM.
`N#Cc1ccc(-c2cccc(CC3CNCCO3)c2C2=CCCC2)cc1F` (stereo not drawn) [Example 64, 2′-(cyclopent-1-en-1-yl)-3-fluoro-3′-[(morpholin-2-yl)methyl]-[1,1′-biphenyl]-4-carbonitrile] was tested, and the IC50 was 25 to 100 nM.
`N#Cc1ccc(-c2cccc(CC3CNCCO3)c2-c2ncco2)cc1F` (stereo not drawn) [Example 65, 3-fluoro-3′-[(morpholin-2-yl)methyl]-2′-(1,3-oxazol-2-yl)-[1,1′-biphenyl]-4-carbonitrile] gave an IC50 of over 1000 nM.
Compound `CC(C)C1(O)CCN(c2ccc(CC3CNCCO3)cc2-c2ccc(C#N)c(F)c2)C1` (stereo not drawn) [Example 66, 3-fluoro-2′-[3-hydroxy-3-(propan-2-yl)pyrrolidin-1-yl]-5′-[(morpholin-2-yl)methyl]-[1,1′-biphenyl]-4-carbonitrile] has an IC50 of 100 to 1000 nM.
Compound `COCC1CCN(c2ccc(CC3CNCCO3)cc2-c2ccc(C#N)c(F)c2)CC1` (stereo not drawn) [Example 67, 3-fluoro-2′-[4-(methoxymethyl)piperidin-1-yl]-5′-[(morpholin-2-yl)methyl]-[1,1′-biphenyl]-4-carbonitrile] has an IC50 of 25 to 100 nM.
Compound `COCc1ccc(-c2ccc(CC3CNCCO3)cc2-c2ccc(C#N)c(F)c2)c(F)c1` (stereo not drawn) [Example 68, 3-fluoro-2′-[2-fluoro-4-(methoxymethyl)phenyl]-5′-[(morpholin-2-yl)methyl]-[1,1′-biphenyl]-4-carbonitrile] has an IC50 of 25 to 100 nM.
In the case of `Cc1ncc(-c2c(CC3CNCCO3)cccc2-c2ccc(C#N)c(F)c2)o1` (stereo not drawn) [Example 69, 3-fluoro-2′-(2-methyl-1,3-oxazol-5-yl)-3′-[(morpholin-2-yl)methyl]-[1,1′-biphenyl]-4-carbonitrile], the IC50 is reported as 100 to 1000 nM.
Work on `N#Cc1ccc(-c2cc(CC3CNCCO3)ccc2N2CCC3(CCOC3)CC2)cc1F` (stereo not drawn) [Example 70, 3-fluoro-5′-[(morpholin-2-yl)methyl]-2′-{2-oxa-8-azaspiro[4.5]decan-8-yl}-[1,1′-biphenyl]-4-carbonitrile] yielded an IC50 of 25 to 100 nM.
`N#Cc1ccc(-c2cccc(CC3CCCNC3)c2-c2ccns2)cc1F` (stereo not drawn) [Example 71, 3-fluoro-3′-[(piperidin-3-yl)methyl]-2′-(1,2-thiazol-5-yl)-[1,1′-biphenyl]-4-carbonitrile] showed an IC50 of under 10 nM.
In the case of `N#Cc1ccc(-c2cc(CC3CNCCO3)ccc2OC[C@@H]2CCCOC2)cc1F` (stereo partly drawn) [Example 72, 3-fluoro-5′-[(morpholin-2-yl)methyl]-2′-{[(3R)-oxa-3-yl]methoxy}-[1,1′-biphenyl]-4-carbonitrile], the IC50 is reported as 100 to 1000 nM.
In the case of `N#Cc1ccc(-c2cc(CC3CNCCO3)ccc2N2CCC(C3CCCO3)CC2)cc1F` (stereo not drawn) [Example 73, 3-fluoro-5′-[(morpholin-2-yl)methyl]-2′-[4-(oxolan-2-yl)piperidin-1-yl]-[1,1′-biphenyl]-4-carbonitrile], the IC50 is reported as 25 to 100 nM.
Compound `COCC1CCN(c2ccc(CC3CNCCCO3)cc2-c2ccc(C#N)c(F)c2)CC1` (stereo not drawn) [Example 74, 3-fluoro-2′-[4-(methoxymethyl)piperidin-1-yl]-5′-[(1,4-oxazepan-2-yl)methyl]-[1,1′-biphenyl]-4-carbonitrile] has an IC50 of 10 to 25 nM.
`CC(c1ccc(N2CCC2)c(-c2ccc(C#N)c(F)c2)c1)C1CNCCO1` (stereo not drawn) [Example 76, 2′-(azetidin-1-yl)-3-fluoro-5′-[1-(morpholin-2-yl)ethyl]-[1,1′-biphenyl]-4-carbonitrile] gave an IC50 of 100 to 1000 nM.
Compound `COc1cn(-c2ccc(CC3CNCCO3)cc2-c2ccc(C#N)c(F)c2)nc1C` (stereo not drawn) [Example 77, 3-fluoro-2′-(4-methoxy-3-methyl-1H-pyrazol-1-yl)-5′-[(morpholin-2-yl)methyl]-[1,1′-biphenyl]-4-carbonitrile] has an IC50 of 100 to 1000 nM.
For `N#Cc1ccc(-c2cc(CC3CNCCO3)ccc2N2CCC3(CCCO3)CC2)cc1F` (stereo not drawn) [Example 78, 3-fluoro-5′-[(morpholin-2-yl)methyl]-2′-{1-oxa-8-azaspiro[4.5]decan-8-yl}-[1,1′-biphenyl]-4-carbonitrile], the IC50 was 100 to 1000 nM.
Compound `CC(C)C1(O)CCN(c2ccc(CC3CNCCO3)cc2-c2ccc(C#N)c(F)c2)CC1` (stereo not drawn) [Example 79, 3-fluoro-2′-[4-hydroxy-4-(propan-2-yl)piperidin-1-yl]-5′-[(morpholin-2-yl)methyl]-[1,1′-biphenyl]-4-carbonitrile] has an IC50 of 10 to 25 nM.
Compound `COc1ccc(-c2ccc(CC3CNCCO3)cc2-c2ccc(C#N)c(F)c2)cn1` (stereo not drawn) [Example 80, 3-fluoro-2′-(6-methoxypyridin-3-yl)-5′-[(morpholin-2-yl)methyl]-[1,1′-biphenyl]-4-carbonitrile] has an IC50 of 100 to 1000 nM.
For `CNC1CCN(c2cccc(-c3ccc(C#N)c(F)c3)c2-c2ccns2)CC1` [Example 81, 3-fluoro-3'-[4-(methylamino)piperidin-1-yl]-2'-(1,2-thiazol-5-yl)-[1,1'-biphenyl]-4-carbonitrile], the IC50 was 10 to 25 nM.
`N#Cc1ccc(-c2cccc(CC3CNCCCO3)c2C2CC2)cc1F` (stereo not drawn) [Example 82, 2′-cyclopropyl-3-fluoro-3′-[(1,4-oxazepan-2-yl)methyl]-[1,1′-biphenyl]-4-carbonitrile] showed an IC50 of 25 to 100 nM.
With `COCCc1ccc(-c2ccc(CC3CNCCO3)cc2-c2ccc(C#N)c(F)c2)c(F)c1` (stereo not drawn) [Example 83, 3-fluoro-2′-[2-fluoro-4-(2-methoxyethyl)phenyl]-5′-[(morpholin-2-yl)methyl]-[1,1′-biphenyl]-4-carbonitrile] the IC50 was 25 to 100 nM.
For `N#Cc1ccc(-c2cccc(CC3CNCCO3)c2C#N)cc1F` (stereo not drawn) [Example 84, 3′-fluoro-3-[(morpholin-2-yl)methyl]-[1,1′-biphenyl]-2,4′-dicarbonitrile], the IC50 was over 1000 nM.
With `COc1ccc(-c2c(C)cc(CC3CNCCO3)cc2-c2ccc(C#N)c(F)c2)cn1` (stereo not drawn) [Example 85, 3-fluoro-2′-(6-methoxypyridin-3-yl)-3′-methyl-5′-[(morpholin-2-yl)methyl]-[1,1′-biphenyl]-4-carbonitrile] the IC50 was 100 to 1000 nM.
In the case of `COc1ccc(C2CN(c3ccc(CC4CNCCO4)cc3-c3ccc(C#N)c(F)c3)C2)cn1` (stereo not drawn) [Example 86, 3-fluoro-2′-[3-(6-methoxypyridin-3-yl)azetidin-1-yl]-5′-[(morpholin-2-yl)methyl]-[1,1′-biphenyl]-4-carbonitrile], the IC50 is reported as 100 to 1000 nM.
`N#Cc1ccc(-c2cc(CC3CNCCO3)ccc2N2CCN(c3nccs3)CC2)cc1F` (stereo not drawn) [Example 88, 3-fluoro-5′-[(morpholin-2-yl)methyl]-2′-[4-(1,3-thiazol-2-yl)piperazin-1-yl]-[1,1′-biphenyl]-4-carbonitrile] was tested, and the IC50 was 100 to 1000 nM.
For `Cc1cc(NCC2CNCCO2)c(Cl)c(-c2ccc(C#N)c(F)c2)c1` (stereo not drawn) [Example 89, 2′-chloro-3-fluoro-5′-methyl-3′-{[(morpholin-2-yl)methyl]amino}-[1,1′-biphenyl]-4-carbonitrile], the IC50 was over 1000 nM.
For `N#Cc1ccc(-c2cccc(CC3CNCCO3)c2-n2cccn2)cc1F` (stereo not drawn) [Example 90, 2-fluoro-4-[3-(morpholin-2-ylmethyl)-2-pyrazol-1-yl-phenyl]benzonitrile], the IC50 was over 1000 nM.
Compound `Cn1nc2ccc(-c3ccc(CC4CNCCO4)cc3-c3ccc(C#N)c(F)c3)cc2c1Cl` (stereo not drawn) [Example 91, 2′-(3-chloro-2-methyl-2H-indazol-5-yl)-3-fluoro-5′-[(morpholin-2-yl)methyl]-[1,1′-biphenyl]-4-carbonitrile] has an IC50 of 25 to 100 nM.
In the case of `N#Cc1ccc(-c2cccc(CC3CNCCO3)c2-c2cocn2)cc1F` (stereo not drawn) [Example 92, 3-fluoro-3′-[(morpholin-2-yl)methyl]-2′-(1,3-oxazol-4-yl)-[1,1′-biphenyl]-4-carbonitrile], the IC50 is reported as 100 to 1000 nM.
`N#Cc1ccc(-c2cc(CC3CNCCO3)ccc2-c2ccc(N3CCCC3)nc2)cc1F` (stereo not drawn) [Example 93, 3-fluoro-5′-[(morpholin-2-yl)methyl]-2′-[6-(pyrrolidin-1-yl)pyridin-3-yl]-[1,1′-biphenyl]-4-carbonitrile] was tested, and the IC50 was 25 to 100 nM.
`COCCOc1ccc(-c2ccc(CC3CNCCO3)cc2-c2ccc(C#N)c(F)c2)cc1` (stereo not drawn) [Example 94, 3-fluoro-2′-[4-(2-methoxyethoxy)phenyl]-5′-[(morpholin-2-yl)methyl]-[1,1′-biphenyl]-4-carbonitrile] showed an IC50 of 25 to 100 nM.
In the case of `CN(C)C1CCN(c2cccc(-c3ccc(C#N)c(F)c3)c2-c2cnco2)CC1` [Example 95, 3'-[4-(dimethylamino)piperidin-1-yl]-3-fluoro-2'-(1,3-oxazol-5-yl)-[1,1'-biphenyl]-4-carbonitrile], the IC50 is reported as 25 to 100 nM.
Work on `N#Cc1ccc(-c2cc(CC3CNCCO3)ccc2-c2ccc(OCC3CC3)nc2)cc1F` (stereo not drawn) [Example 96, 2′-[6-(cyclopropylmethoxy)pyridin-3-yl]-3-fluoro-5′-[(morpholin-2-yl)methyl]-[1,1′-biphenyl]-4-carbonitrile] yielded an IC50 of 100 to 1000 nM.
With `N#Cc1ccc(-c2cc(CC3CNCCO3)ccc2N2CCn3nc(C4CC4)cc3C2)cc1F` (stereo not drawn) [Example 97, 2′-{2-cyclopropyl-4H,5H,6H,7H-pyrazolo[1,5-a]pyrazin-5-yl}-3-fluoro-5′-[(morpholin-2-yl)methyl]-[1,1′-biphenyl]-4-carbonitrile] the IC50 was over 1000 nM.
In the case of `COc1ccc(-c2ccc(CC3CNCCO3)cc2-c2ccc(C#N)c(F)c2)cc1F` (stereo not drawn) [Example 98, 3-fluoro-2′-(3-fluoro-4-methoxyphenyl)-5′-[(morpholin-2-yl)methyl]-[1,1′-biphenyl]-4-carbonitrile], the IC50 is reported as 100 to 1000 nM.

Source: patent publication US20260209214A1, “LSD1 MODULATORS” (RECURSION PHARMACEUTICALS, INC., priority 2022, published 2026)
